One series relates to Hela-S3 cells. Briefly: Cytotoxicity to Hela-S3 cells (colony formation). The series is classed as cell-based. The note with it: sensitized 2 hours at 37°C, colonies counted in 72 hours. As to the method: Hela-S3 cells (1 x 10⁴ cells/ml) were applied to an Eagle's MEM medium or a 10 % fresh calf serum-containing Eagle's MEM medium, and Agrimoniin was added thereto to sensitize the cells at 37°C for 2 hours. The concentration of the Agrimoniin added was variously varied. After sensitization, the cells were washed with Hanks' solution and then incubated in a CO₂ incubator containing a 10 % fresh calf serum-containing Eagle's MEM medium at 37°C for 72 hours. […] In addition, IC₅₀ of Agrimoniin to Hela-S3 cells in the 10 % fresh calf serum-containing Eagle's MEM medium was improved to be 57.4 µg/ml. From these experiments, it is noted that ellagitannins have a relatively strong direct cytotoxic action but the cytotoxic action may be reduced by addition of proteins such as serum to the culture medium.

In a further series the test system is ddy mice. Briefly: LD50 by probit method. The series is classed as in vivo. The source says:
50 % lethal dose (LD₅₀) of Coriariin A to ddy mice was obtained by probit method.

In the case of `O=C(O[C@H]1O[C@@H]2COC(=O)c3cc(O)c(O)c(O)c3-c3c(cc(O)c(O)c3O)C(=O)O[C@H]2[C@@H]2OC(=O)c3cc(O)c(O)c(O)c3-c3c(cc(O)c(O)c3O)C(=O)O[C@@H]12)c1cc(O)c(O)c(Oc2c(C(=O)O[C@H]3O[C@@H]4COC(=O)c5cc(O)c(O)c(O)c5-c5c(cc(O)c(O)c5O)C(=O)O[C@H]4[C@@H]4OC(=O)c5cc(O)c(O)c(O)c5-c5c(cc(O)c(O)c5O)C(=O)O[C@@H]34)cc(O)c(O)c2O)c1` [Agrimoniin], the entries for the “50 % cell-inhibiting concentration (IC₅₀)” value in the series with Hela-S3 cells (10 % fresh calf serum-containing Eagle's MEM medium) and with Hela-S3 cells (Eagle's MEM medium) were 57.4 µg/mL and 7.3 µg/mL, respectively.
Regarding `O=C(O[C@@H]1O[C@@H]2COC(=O)c3cc(O)c(O)c(O)c3-c3c(cc(O)c(O)c3O)C(=O)O[C@H]2[C@H](OC(=O)c2cc(O)c(O)c(O)c2)[C@H]1OC(=O)c1cc(O)c(O)c(O)c1)c1cc(O)c(O)c(Oc2c(C(=O)O[C@H]3O[C@@H]4COC(=O)c5cc(O)c(O)c(O)c5-c5c(cc(O)c(O)c5O)C(=O)O[C@H]4[C@H](OC(=O)c4cc(O)c(O)c(O)c4)[C@H]3OC(=O)c3cc(O)c(O)c(O)c3)cc(O)c(O)c2O)c1` [Coriariin A], the LD₅₀ with ddy mice (Intraabdominal, Female) was 119.1 mg/kg; with ddy mice (Intraabdominal, Male), 120.2 mg/kg; in the series with ddy mice (Intravenous, Female), 36.8 mg/kg; in the series with ddy mice (Intravenous, Male), 37.5 mg/kg; in the series on ddy mice (Peroral, Female), 1000 or more mg/kg; in the series on ddy mice (Peroral, Male), 1000 or more mg/kg.

The values above are taken from patent publication EP0297547A2, “Use of hydrolyzable tannins for treatement and prophylaxis of AIDS” (LEAD CHEMICAL COMPANY LTD., priority 1987, dated 1989).
